According to article PMC8704944, “From Far West to East: Joining the Molecular Architecture of Imidazole-like Ligands in HO-1 Complexes” (Pharmaceuticals, 2021):
“And” between values parts separate entries of the source, which are not always exact repeats. Identical values can stand only once. Counter-ions that a name gives are not always drawn.

System: not given
Assay: not given
Conditions: not given

Row | Compound | melting point [°C]
1 | Cc1ccc2c(c1)cc(C(=O)NCCCn1ccnc1)n2C (as salt: hydrochloride) [Compound 4a, N-(3-(1H-Imidazol-1-yl)propyl)-1,5-dimethyl-1H-indole-2-carboxamide] | 102 to 103
2 | COc1ccc2c(c1)cc(C(=O)NCCCn1ccnc1)n2C (as salt: hydrochloride) [Compound 4b, N-(3-(1H-Imidazol-1-yl)propyl)-5-methoxy-1-methyl-1H-indole-2-carboxamide] | 121 to 122
3 | COc1cc2cc(C(=O)NCCCn3ccnc3)n(C)c2cc1OC (as salt: hydrochloride) [Compound 4c, N-(3-(1H-Imidazol-1-yl)propyl)-5,6-dimethoxy-1-methyl-1H-indole-2-carboxamide] | 146 to 147
4 | Cn1c(C(=O)NCCCn2ccnc2)cc2cc(OCc3ccccc3)ccc21 (as salt: hydrochloride) [Compound 4d, N-(3-(1H-Imidazol-1-yl)propyl)-5-(benzyloxy)-1-methyl-1H-indole-2-carboxamide] | 174 to 175
5 | Cc1ccc2c(c1)cc(C(=O)NCCCn1ccnc1)n2Cc1ccccc1 (as salt: hydrochloride) [Compound 8a, N-(3-(1H-Imidazol-1-yl)propyl)-1-benzyl-5-methyl-1H-indole-2-carboxamide] | 178 to 179
6 | COc1ccc2c(c1)cc(C(=O)NCCCn1ccnc1)n2Cc1ccccc1 (as salt: hydrochloride) [Compound 8b, N-(3-(1H-Imidazol-1-yl)propyl)-1-benzyl-5-methoxy-1H-indole-2-carboxamide] | 151 to 152
7 | COc1cc2cc(C(=O)NCCCn3ccnc3)n(Cc3ccccc3)c2cc1OC (as salt: hydrochloride) [Compound 8c, N-(3-(1H-Imidazol-1-yl)propyl)-1-benzyl-5,6-dimethoxy-1H-indole-2-carboxamide] | 110 to 111
8 | O=C(NCCCn1ccnc1)c1cc2cc(OCc3ccccc3)ccc2[nH]1 [Compound 1, N-(3-(1H-Imidazol-1-yl)propyl)-5-(benzyloxy)-1H-indole-2-carboxamide] | 204 to 206

Target: T1, HO-1 (Rattus norvegicus, UniProt P06762)
T1 construct: Rat spleen microsomal fractions were chosen to isolate HO-1 in its most native form; from tissue; host or cells: rat spleen (male Sprague-Dawley), 100,000 g microsomal pellet
T1 sequence (P06762 1-289): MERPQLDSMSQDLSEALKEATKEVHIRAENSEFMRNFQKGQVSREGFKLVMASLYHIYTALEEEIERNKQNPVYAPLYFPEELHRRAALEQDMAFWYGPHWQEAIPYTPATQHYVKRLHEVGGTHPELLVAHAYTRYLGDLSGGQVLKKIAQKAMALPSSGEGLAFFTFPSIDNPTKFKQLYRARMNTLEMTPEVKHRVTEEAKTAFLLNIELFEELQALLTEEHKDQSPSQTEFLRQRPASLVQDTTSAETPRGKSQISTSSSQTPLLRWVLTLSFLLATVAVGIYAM
Assay: HO-1 enzymatic activity in the microsomal fraction of rat spleen (bilirubin formation)
Assay type: biochemical
Conditions: rat spleen microsomal fraction; mean ± SD of triplicate experiments
Procedure: The inhibitory potency of the novel compounds was evaluated reproducing in vitro the HO-1 catalytic cycle. Rat spleen microsomal fractions were chosen to isolate HO-1 in its most native form; indeed, it is well known that in basal conditions, HO-1 is highly expressed in spleen tissues. […] Among the three catabolites, bilirubin concentrations can easily be monitored spectrophotometrically; the lowest is the absorbance detected with the assay, and the highest is the potency of the putative inhibitor. Results obtained from the in vitro enzymatic assay are reported in Table 1, using Azalanstat as the reference compound.
Rat spleen microsomal fraction obtained by differential centrifugation, according to Ryter et al., was used as source of the HO-1 protein. As reported in the literature, HO-1 is abundant in the rat spleen. We chose this source because it represents the most native (i.e., closest to in vivo) form of HO-1. The experiments reported in the present paper complied with current Italian law and met the guidelines of the Institutional Animal Care and Use Committee of the Ministry of Health (Directorate-General for Animal Health and Veterinary Medicines, Italy) “Dosing of enzymatic activities in rat microsomes” (2018–2022), project code 02769.N.VLY. We used male albino rats of strain Sprague–Dawley (150 g body weight and age 45 d) to obtain spleen microsomal fraction. Rats had free access to water and were kept at room temperature with a natural photoperiod (12 h light–12 h dark cycle). Each rat was sacrificed, and their spleens were pooled and then homogenized in 50 mM Tris buffer, pH 7.4, containing 0.25 M sucrose, using a Potter–Elvehjem homogenizing system with a Teflon pestle. Rat spleen homogenate was centrifuged at 10,000× g for 20 min at 4 °C, and the supernatant was centrifuged at 100,000× g for 60 min at 4 °C. The 100,000 g pellet (microsomes) was resuspended in 100 mM potassium phosphate buffer, pH 7.8, containing MgCl2 2 mM. After measuring its protein concentration, the microsomal fraction was aliquoted and stored at −80 °C for up to 2 months.
Liver tissue was used to obtain biliverdin reductase. Liver tissue was homogenized on ice in 3 volumes of a solution 1.15% KCl w/v and Tris buffer 20 mM, pH 7.8. Rat liver homogenate was centrifuged at 10,000× g for 20 min at 4 °C, and the supernatant was centrifuged at 100,000× g for 1 h at 4 °C. The 100,000 g supernatant was aliquoted and stored at −80 °C after its protein concentration was measured.
Determination of HO-1 activity has been performed by measuring the bilirubin formation using the difference in absorbance at 464–530 nm as described by Ryter et al.. The incubation mixture contained the following in a final volume of 500 µL: 20 mM Tris–HCl, pH 7.4, (1 mg/mL) microsomal extract, 0.5–2 mg/mL biliverdin reductase, 1 mM NADPH, 2 mM glucose 6-phosphate (G6P), 1 U G6P dehydrogenase, 25 µM hemin, and 10 µL of DMSO (or the same volume of DMSO solution of test compounds to a final concentration of 100, 10, and 1 µM). Enzymatic reactions were carried out in the dark for 1 h at 37 °C in a circulating water bath. Then, 500 µL of chloroform was used to stop the reaction. The amount of bilirubin formed was measured in the chloroform phase, with a double-beam spectrophotometer as OD464–530 nm (extinction coefficient, 40 mM/cm for bilirubin). The enzymatic activity was defined as Units (one Unit is the amount of enzyme catalyzing the formation of 1 nmol of bilirubin/mg protein/h).

Row | Compound | IC50 | HO-1 IC50
9 | O=C(NCCCn1ccnc1)c1cc2cc(OCc3ccccc3)ccc2[nH]1 [Compound 1, N-(3-(1H-Imidazol-1-yl)propyl)-5-(benzyloxy)-1H-indole-2-carboxamide] | 89.6 ± 6.1 µM | –
10 | Cc1ccc2c(c1)cc(C(=O)NCCCn1ccnc1)n2C [Compound 4a, N-(3-(1H-Imidazol-1-yl)propyl)-1,5-dimethyl-1H-indole-2-carboxamide] | 367 ± 34.5 µM | –
11 | COc1ccc2c(c1)cc(C(=O)NCCCn1ccnc1)n2C [Compound 4b, N-(3-(1H-Imidazol-1-yl)propyl)-5-methoxy-1-methyl-1H-indole-2-carboxamide] | > 100 µM and 113 µM | –
12 | COc1cc2cc(C(=O)NCCCn3ccnc3)n(C)c2cc1OC [Compound 4c, N-(3-(1H-Imidazol-1-yl)propyl)-5,6-dimethoxy-1-methyl-1H-indole-2-carboxamide] | 55.5 ± 3.82 µM | –
13 | Cn1c(C(=O)NCCCn2ccnc2)cc2cc(OCc3ccccc3)ccc21 [Compound 4d, N-(3-(1H-Imidazol-1-yl)propyl)-5-(benzyloxy)-1-methyl-1H-indole-2-carboxamide] | 1.03 ± 0.13 µM | low micromolar range
14 | Cc1ccc2c(c1)cc(C(=O)NCCCn1ccnc1)n2Cc1ccccc1 [Compound 8a, N-(3-(1H-Imidazol-1-yl)propyl)-1-benzyl-5-methyl-1H-indole-2-carboxamide] | 2060 ± 412 µM | –
15 | COc1ccc2c(c1)cc(C(=O)NCCCn1ccnc1)n2Cc1ccccc1 [Compound 8b, N-(3-(1H-Imidazol-1-yl)propyl)-1-benzyl-5-methoxy-1H-indole-2-carboxamide] | > 100 µM and 349 µM | –
16 | COc1cc2cc(C(=O)NCCCn3ccnc3)n(Cc3ccccc3)c2cc1OC [Compound 8c, N-(3-(1H-Imidazol-1-yl)propyl)-1-benzyl-5,6-dimethoxy-1H-indole-2-carboxamide] | 81 ± 4.65 µM | –

Same assay, conditions: versus compound 1

Row | Compound | fold more potent than parent compound 1 (HO-1 IC50) [fold]
17 | Cn1c(C(=O)NCCCn2ccnc2)cc2cc(OCc3ccccc3)ccc21 [Compound 4d, N-(3-(1H-Imidazol-1-yl)propyl)-5-(benzyloxy)-1-methyl-1H-indole-2-carboxamide] | 87

System: HO-2
Assay: not given
Conditions: representative inhibitor, printed in picture of Figure 1; cited from earlier work

Row | Compound | IC50 [µM]
18 | FC(F)(F)c1ccc(SC[C@@H]2CO[C@@](CCc3ccc(Cl)cc3)(Cn3ccnc3)O2)nc1 [QC-80] | 16

System: HO-1
Assay: not given
Conditions: representative inhibitor, printed in picture of Figure 1; cited from earlier work

Row | Compound | IC50 [µM]
19 | FC(F)(F)c1ccc(SC[C@@H]2CO[C@@](CCc3ccc(Cl)cc3)(Cn3ccnc3)O2)nc1 [QC-80] | 2.1
